Patent US6495699B2, “Metalloproteinase inhibitors, pharmaceutical compositions containing them, and their use” (Agouron Pharmaceuticals Inc., priority 1996, dated 2002)

Tests used:
Assay type in all cases: biochemical
[1] = biological target: T1, human collagenase-3 (Coll3) (Homo sapiens, UniProt P45452); test: Fluorometric MCA-peptide hydrolysis assay, collagenase-3 (Coll3); details: apparent Ki; 10 μM MCA peptide substrate, 37° C., pH 7.5; read-out: Coll3 (Ki,app)
T1 construct: the catalytic domain was liberated by treatment with 2 mM APMA at room temperature overnight; ubiquitin (N, cleaved yes); made in house; host or cells: E. coli
Method: The propeptide and catalytic domain of human collagenase-3 (Coll3) was expressed in E. coli as an N-terminal fusion protein with ubiquitin. After purification of the fusion from inclusion bodies, the catalytic domain was liberated by treatment with 2 mM APMA at room temperature overnight. Final purification was completed using copper chelate chromatography.
(§1) Assays were performed in assay buffer (50 mM Tricine pH 7.5, 200 mM sodium chloride, 10 mM calcium chloride, 0.5 mM zinc acetate containing 2% dimethyl sulfoxide (DMSO)) once the substrate and inhibitor were diluted into it. Stock solutions of inhibitors were prepared in 100% DMSO. Stock solutions of the substrate were prepared in 100% DMSO at a concentration of 6 mM.
(§2) The assay method was based on the hydrolysis of MCA-Pro-Leu-Gly-Leu-DPA-Ala-Arg-NH2 (American Peptide Co.) at 37° C. (see Knight, C. G. et al., FEBS, 1992, 296, 263-266). The fluorescence changes were monitored with a Perkin-Elmer LS-50B fluorimeter using an excitation wavelength of 328 nm and an emission wavelength of 393 nm. The substrate concentration used in the assays was 10 μM. The inhibitor was diluted into the assays from a solution in 100% DMSO, and controls substituted an equal volume of DMSO so that the final DMSO concentration from inhibitor and substrate dilution in all assays was 2%. […] Proper determination of steady-state rates of substrate cleavage required assay lengths of 60 minutes to allow for complete equilibration of the enzyme-inhibitor complex.
The Km for the MCA peptide substrate with the matrix metalloproteinases is quite high and exceeds its solubility under assay conditions. Consequently, the apparent Ki (Ki,app) was determined to describe the strength of inhibition. However, in this case, Ki,app would be essentially equal to Ki since [S]<<Km. For the determination of Ki,app, the concentration of the inhibitor was varied at a constant and low concentration of substrate and the steady-state rates of fluorescence change determined. […] For slow-binding inhibitors, onset of inhibition curves were collected for at least 45 minutes so that equilibrium was established. Steady-state rates of fluorescence change were obtained by fitting a curve to an equation for a single exponential decay containing a linear phase. The fitted value of the linear phase was taken as the steady-state rate. The steady-state rates were fitted to the Michaelis equation describing competitive inhibition by non-linear methods. Data resulting from tight-binding inhibition was analyzed, and Ki,app determined by fitting the data to the tight-binding equation of Morrison (Biochem. Biophys. Acta, vol. 185, pp. 269-286 (1969)) by non-linear methods.

[2] = biological target: T2, human progelatinase A (GelA), catalytic and fibronectin-like portion (Homo sapiens, UniProt P08253); test: Fluorometric MCA-peptide hydrolysis assay, gelatinase A (GelA); details: apparent Ki, 10 μM MCA peptide substrate, 37° C., pH 7.5; for Ki: read-out: GelA (Ki,app)
T2 construct: The catalytic and fibronectin-like portion of human progelatinase A (GelA) was expressed as a fusion protein with ubiquitin; ubiquitin; made in house; host or cells: E. coli
Method: The catalytic and fibronectin-like portion of human progelatinase A (GelA) was expressed as a fusion protein with ubiquitin in E. Coli. Assays were carried out on autocatalytically activated material.
as §1, §2
(§3) The Km for the MCA peptide substrate with the matrix metalloproteinases is quite high and exceeds its solubility under assay conditions. Consequently, the apparent Ki (Ki,app) was determined to describe the strength of inhibition. However, in this case, Ki,app would be essentially equal to Ki since [S]<<Km. For the determination of Ki,app, the concentration of the inhibitor was varied at a constant and low concentration of substrate and the steady-state rates of fluorescence change determined. In most cases absorptive quench due to the presence of ligand was not observed. For slow-binding inhibitors, onset of inhibition curves were collected for at least 45 minutes so that equilibrium was established. Steady-state rates of fluorescence change were obtained by fitting a curve to an equation for a single exponential decay containing a linear phase. The fitted value of the linear phase was taken as the steady-state rate. The steady-state rates were fitted to the Michaelis equation describing competitive inhibition by non-linear methods. Data resulting from tight-binding inhibition was analyzed, and Ki,app determined by fitting the data to the tight-binding equation of Morrison (Biochem. Biophys. Acta, vol. 185, pp. 269-286 (1969)) by non-linear methods.

[3] = biological target: T3, catalytic domain of human stromelysin (Hsln) (Homo sapiens, UniProt P08254); test: Fluorometric MCA-peptide hydrolysis assay, stromelysin (Hsln); details: apparent Ki; 10 μM MCA peptide substrate, 37° C., pH 7.5; read-out: Hsln (Ki,app)
T3 construct: The catalytic domain of human stromelysin (Hsln) was obtained by expression and purification of a C-terminally truncated prostromelysin-1; made in house; host or cells: E. coli BL21
Method: The catalytic domain of human stromelysin (Hsln) was obtained by expression and purification of a C-terminally truncated prostromelysin-1 from E. coli host BL21 (see Marcy et al. Biochem., 1991, 30, 6476). The subsequent activation of the mature form (Hsln) was completed with 2 mM APMA for 1 hour at 37° C., followed by separation using a sizing column.
as §1, §2, §3

Human matrilysin (Matr) = biological target: T4, Human matrilysin (Matr) (Homo sapiens, UniProt P09237); test: Fluorometric MCA-peptide hydrolysis assay, matrilysin (Matr); details: apparent Ki; 10 μM MCA peptide substrate, 37° C., pH 7.5; read-out: Matr (Ki,app)
T4 construct: the catalytic domain was liberated by treatment with 2 mM APMA at 37° C. for 2 hours; ubiquitin (cleaved yes); made in house; host or cells: E. coli
T4 sequence (P09237 95-267): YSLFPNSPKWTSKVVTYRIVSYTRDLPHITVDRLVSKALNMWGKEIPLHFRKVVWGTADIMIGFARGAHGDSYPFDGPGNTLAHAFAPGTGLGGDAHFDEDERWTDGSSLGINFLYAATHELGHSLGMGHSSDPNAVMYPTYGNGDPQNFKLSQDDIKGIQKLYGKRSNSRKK
Method: Human matrilysin (Matr) was expressed in E. coli as a fusion protein with ubiquitin. After purification of the matrilysin/ubiquitin fusion from inclusion bodies, the catalytic domain was liberated by treatment with 2 mM APMA at 37° C. for 2 hours. Final purification was complete using copper chelate chromatography.
as §1, §2, §3

T2 sequence (P08253 110-465 limits assumed): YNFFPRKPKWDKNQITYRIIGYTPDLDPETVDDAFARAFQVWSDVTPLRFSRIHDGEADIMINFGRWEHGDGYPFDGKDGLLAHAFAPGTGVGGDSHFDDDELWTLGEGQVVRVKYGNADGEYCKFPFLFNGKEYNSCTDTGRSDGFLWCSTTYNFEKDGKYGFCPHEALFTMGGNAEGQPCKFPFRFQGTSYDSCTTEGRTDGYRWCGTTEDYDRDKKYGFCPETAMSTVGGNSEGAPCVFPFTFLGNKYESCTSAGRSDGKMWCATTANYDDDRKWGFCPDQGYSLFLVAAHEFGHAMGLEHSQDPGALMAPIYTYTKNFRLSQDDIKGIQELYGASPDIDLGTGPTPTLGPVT
T3 sequence (P08254 100-272 limits assumed): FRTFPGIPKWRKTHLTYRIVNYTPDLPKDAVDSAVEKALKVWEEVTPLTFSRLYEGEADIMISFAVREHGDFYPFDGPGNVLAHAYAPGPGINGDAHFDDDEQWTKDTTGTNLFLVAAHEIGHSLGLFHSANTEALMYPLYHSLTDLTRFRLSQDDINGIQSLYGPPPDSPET

Row | Molecule | Ki [1] | Ki [2] | Ki [3] | GelA (Ki,app) [2] | Ki (Human matrilysin (Matr))
1 | 3(R)-[3-(4-Cyanophenyl)-1H-pyrrol-1-yl]-N-(2,2-dimethyl-1(S)-(hydroxymethyl)propyl)succinamic Acid Triethylammonium Salt [Example 5(h)] | 43 nM | 17.4 nM | 650 nM |  | 
2 | 3(R)-[3-(4′-Cyanobiphenyl-4-yl)-1H-pyrrol-1-yl]-N-[2,2-dimethyl-1(S)-(hydroxymethyl)propyl]succinamic Acid Triethylammonium Salt [Example 5(g)] | 14.5 nM | 2.2 nM | 57 nM |  | 
3 | CCCC(C(=O)O)[C@H](C(=O)N[C@H](CO)Cc1ccccc1)n1ccc(-c2ccc(-c3ccc(C#N)cc3)cc2)c1 (mixture of isomers) [Example 10(b), 2(RS)-{1R-[1(S)-Benzyl-2-hydroxyethylcarbamoyl]-[3-(4′-cyano-biphenyl-4-yl)-1H-pyrrol-1-yl]-methyl}-pentanoic Acid] | 23.5 nM |  | 16 nM | 9.6 nM | 510 nM
4 | CC(C)C[C@H](NC(=O)[C@@H](CC(=O)O)n1ccc(-c2ccc(-c3ccccc3)cc2)c1)C(C)O (mixture of isomers) [Example 3] | 180 nM |  | 150 nM | 58 nM | 1250 nM
5 | O=C(O)C[C@H](C(=O)N[C@H](CO)Cc1ccccc1)n1ccc(-c2ccc(-c3ccccc3)cc2)c1 [1(a), N-(1(S)-Benzyl-2-hydroxyethyl)-3(R)-[3-(biphenyl-4-yl)-1H-pyrrol-1-yl]succinamic Acid] | 30 nM |  | 65 nM | 5.4 nM | 1000 nM
6 | O=C(O)C(F)(F)F.O=C(O)C[C@H](C(=O)N[C@H](CO)Cc1c[nH]cn1)n1ccc(-c2ccc(-c3ccccc3)cc2)c1 [Example 1(g), 3(R)-[3-(Biphenyl-4-yl)-1H-pyrrol-1-yl]-N-[2-hydroxy-1(S)-[(1H-imidazol-4-yl)methyl]ethyl]succinamic Acid Trifluoroacetate Salt] | 58.5 nM |  | 58 nM | 8.5 nM | 
7 | O=C(O)C[C@H](C(=O)N[C@@H]1CCCC[C@H]1O)n1ccc(-c2ccc(-c3ccccc3)cc2)c1 [Example 1(h), 3(R)-[3-(Biphenyl-4-yl)-1H-pyrrol-1-yl]-N-(2(R)-hydroxycyclohex-1(R)-yl)succinamic Acid] | 3000 nM |  | 822 nM | 58 nM | 
8 | CON(C)C(=O)[C@H](CC(C)C)NC(=O)[C@@H](CC(=O)O)n1ccc(-c2ccc(-c3ccccc3)cc2)c1 [Example 1(l)] | 227 nM |  | 317 nM | 54 nM | 
9 | CNC(=O)[C@@H](NC(=O)[C@@H](CC(=O)O)n1ccc(C(=O)Cc2ccc(C#N)cc2)c1)C(C)(C)C [Example 1(p), 3(R)-[3-[(4-Cyanophenyl)acetyl]-1H-pyrrol-1-yl]-N-(2,2-dimethyl-1(S)-(methylcarbamoyl)propyl]succinamic Acid] |  |  | 55000 nM | 1230 nM | 
10 | CC(=O)[C@H](CC(C)C)NC(=O)[C@@H](CC(=O)O)n1ccc(-c2ccc(-c3ccccc3)cc2)c1 [Example 2, N-(1(S)-Acetyl-3-methylbutyl)-3(R)-[3-(biphenyl-4-yl)-1H-pyrrol-1-yl)succinamic Acid] | 123 nM |  | 89 nM | 6.2 nM | 400 nM
11 | CNC(=O)[C@@H](CC(=O)O)n1ccc(-c2ccc(-c3ccncc3)cc2)c1 [Example 7(d), N-Methyl-3(R)-[3-[4-(pyridin-4-yl)phenyl]-1H-pyrrol-1-yl]succinamic Acid] | 284 nM |  | 1580 nM | 121 nM | 
12 | O=C(C[C@H](C(=O)N[C@H](CO)Cc1ccccc1)n1ccc(-c2ccc(-c3ccccc3)cc2)c1)NO [Example 8(a)] |  |  | 0.69 nM | 0.027 nM | 36 nM
13 | CC(C)(C)[C@@H](CO)NC(=O)[C@@H](CC(=O)NO)n1ccc(-c2ccc(-c3ccncc3)cc2)c1 [Example 9, N^1-[2,2-Dimethyl-1(S)-(hydroxymethyl)propyl]-N^4-hydroxy-2(R)-[3-[4-(pyridin-4-yl)phenyl]-1H-pyrrol-1-yl]succinamide] | 0.018 nM |  | 0.2 nM | 0.011 nM | 
14 | CC(C)(C)[C@@H](CO)NC(=O)[C@@H]([C@H](CCCO)C(=O)O)n1ccc(-c2ccc(-c3ccccc3)cc2)c1 [Example 11, 2S-[1R-(3-(Biphenyl-4-yl)-1H-pyrrol-1-yl)-1-(1(S)-hydroxymethyl-2,2-dimethyl-propylcarbamoyl)-methyl]-5-hydroxypentanoic Acid] | > 750 nM |  | 62 nM | 60 nM | 
15 | C=CC[C@H](C(=O)O)[C@H](C(=O)N[C@H](CO)C(C)(C)C)n1ccc(-c2ccc(-c3ccccc3)cc2)c1 [Example 12, 2S, 2(1S)-[[3-(Biphenyl-4-yl)-1H-pyrrol-1R-yl]-[2,2-dimethyl-1(S)-(hydroxymethyl)propylcarbamoyl]methyl]pent-4-enoic Acid] |  |  | > 500 nM | > 500 nM | 
16 | CNC(=O)[C@@H](NC(=O)[C@@H](CC(=O)O)c1ccn(-c2ccc(-c3ccc(C#N)cc3)cc2)c1)C(C)(C)C [Example 14(b), 3(S)-[1-(4′-Cyanobiphenyl-4-yl)-1H-pyrrol-3-yl]-N-[2,2-dimethyl-1(S)-(methylcarbamoyl)propyl]succinamic Acid] | 0.028 nM |  | 1.3 nM | 0.012 nM | 
17 | O=C(O)C[C@H](C(=O)N[C@H](CO)Cc1ccccc1)c1ccc(-c2ccc(-c3ccccc3)cc2)o1 [Example 15(a), N-(1(S)-Benzyl-2-hydroxyethyl)-3(S)-(2-(biphenyl-4-yl)furan-5-yl)succinamic Acid] | 300 nM |  | 92 nM | 72 nM | 
18 | CNC(=O)[C@@H](NC(=O)C(CC(=O)O)c1ccc(-c2ccc(-c3ccccc3)cc2)o1)C(C)(C)C (stereo partly drawn) [Example 15(b), N-[2,2-Dimethyl-1(S)-(methylcarbamoyl)propyl]-3-(2-(biphenyl-4-yl)-furan-5-yl)succinamic Acid] | 1020 nM |  | 122 nM | 91 nM | 
